Measurements published in patent US8293788B2, “2-phenylpropionic acid derivatives and pharmaceutical compositions containing them” (priority 2004, dated 2012).

Key:
[1] = system: C5a induced PMNs chemotaxis; test: C5a induced PMN chemotaxis assay; type: cell-based; conditions: human PMNs; for inhibition at 0.01 µM: compound at 10^−8M, read-out: PMN migration by C5a % of inhibition (10^−8M); for PMN migration by C5a % of inhibition: tested at 10^−6M
Experimental: (§1) The compounds of the invention of formula (I) were evaluated in vitro for their ability to inhibit chemotaxis of polymorphonucleate leukocytes (hereinafter referred to as PMNs) and monocytes induced by the fractions of IL-8 and GRO-α and C5a. For this purpose, in order to isolate the PMNs from heparinized human blood, taken from healthy adult volunteers, mononucleates were removed by means of sedimentation on dextran (according to the procedure disclosed by W. I. Ming et al., J. Immunol., 138, 1469, 1987) and red blood cells by a hypotonic solution. The cell vitality was calculated by exclusion with Trypan blue, whilst the ratio of the circulating polymorphonucleates was estimated on the cytocentrifugate after staining with Diff Quick.
In the C5a induced chemotaxis essay the fractions hrC5a and hrC5a-desArg (Sigma) were used as stimulating agents in chemotaxis experiments, obtaining practically identical results, Lyophilized C5a was dissolved in a volume of HBSS containing 0.2% BSA so as to obtain a stock solution having a concentration of 10^−5 M, to be diluted in HBSS to a concentration of 10^−9 M, for the chemotaxis assays.
(§2) In the chemotaxis experiments, the PMNs were incubated with the compounds of the invention of formula (I) for 15′ at 37° C. in an atmosphere containing 5% CO2.
The chemotactic activity of the C5a was evaluated on human circulating polymorphonucleates (PMNs) resuspended in HBSS at a concentration of 1.5×10^6 PMNs per ml.
(§3) During the chemotaxis assay (according to W. Falket et al., J. Immunol. Methods, 33, 239, 1980) PVP-free filters with a porosity of 5 μm and microchambers suitable for replication were used.
(§4) The compounds of the invention in formula (I) were evaluated at a concentration ranging between 10^−6 and 10^−10 M; for this purpose they were added, at the same concentration, both to the lower pores and the upper pores of the microchamber. Evaluation of the ability of the compounds of the invention of formula (I) to inhibit the chemotaxis of human monocytes was carried out according to the method disclosed by Van Damme J. et al. (Eur. J. Immunol., 19, 2367, 1989).

[2] = Protein binding in rat plasma (ultrafiltration); type: in vitro ADME; conditions: 37° C.
Experimental: Protein Binding was determined as follows: Duplicate rat plasma samples of each compound at 50 μg/mL concentration were incubated at 37° C. for 20 minutes under gentle shaking. Then samples were ultrafiltrated through Centrifree® micropartition devices by centrifugation at 1500 g for 15 minutes. The ultrafiltrate was subjected to HPLC-MS/MS quantitative analysis (Column Luna C18, 150×2 mm ID 5 μm (Phenomenex), mobile phase: eluent A) 0.02M HCOO^−NH4^+ (pH 4.3 with HCOOH); eluent B) CH3OH).

[3] = system: GRO-α induced PMN chemotaxis; test: GRO-α induced PMN chemotaxis assay; type: cell-based; conditions: human PMNs; for PMN migration by GROα % of inhibition: tested at 10^−6M; for inhibition at 0.01 µM: compound at 10^−8M, read-out: PMN migration by GROα % of inhibition (10^−8M)
Experimental: as §1
GRO-α induced chemotaxis inhibition was evaluated in an analogous assay.
as §2, §3, §4

[4] = Pharmacokinetic profile in male mice after intravenous and oral administration; type: in vivo; conditions: mouse, plasma; for bioavailability: intravenous and oral administration
Experimental: The pharmacokinetic profile (t1/2, oral bioavailability, etc) of claimed compounds was evaluated in male mice after intravenous and oral administration. The pharmacokinetic analysis was performed using compounds plasmatic concentrations at different times. The data were evaluated by Kinetica 2000™, Version 3.0 Software [InnaPhase Corporation, World headquarters, 1700 Race Street, Philadelphia, Pa. 19103 USA].

[5] = system: human PMNs chemotaxis induced by IL-8; test: IL-8 induced PMN chemotaxis assay; type: cell-based; conditions: compound at 10^−9M, read-out: PMN migration by IL-8 % of inhibition (10^−9M)
Experimental: as §1
In the IL-8 induced chemotaxis assay human recombinant IL-8 (Pepro Tech) was used as stimulating agents in the chemotaxis experiments: the lyophilized protein was dissolved in a volume of HBSS containing 0.2% bovin serum albumin (BSA) so thus to obtain a stock solution having a concentration of 10^−5 M to be diluted in HBSS to a concentration of 10^−9 M, for the chemotaxis assays.
as §2, §3, §4

Row | Structure (SMILES) | inhibition at 0.01 µM [1] [%] | fraction unbound at 20 min, 50 μg/mL [2] | PMN migration by GROα % of inhibition [3] | half-life [4] [h] | bioavailability [4] [%] | inhibition at 0.001 µM [5] [%] | PMN migration by C5a % of inhibition [1] | inhibition at 0.01 µM [3] [%]
1 | C[C@@H](C(=O)NCCN1CCCC1)c1ccc(OS(=O)(=O)C(F)(F)F)cc1.Cl | 65 ± 18 | 0.296 | Inactive^# | 3.4 | 80 | 52 ± 12 |  | 
2 | C[C@@H](C(N)=O)c1ccc(OS(=O)(=O)C(F)(F)F)cc1 |  | 0.062 |  | 2.3 | 95 | 64 ± 2 | Inactive^# | 61 ± 3
3 | C[C@@H](C(=O)[N-]S(C)(=O)=O)c1ccc(OS(=O)(=O)C(F)(F)F)cc1.[Na+] |  | 0.01 |  | 24.7 | ~100 | 58 ± 9 | Inactive^# | 61 ± 6
4 | CC(C)Cc1ccc([C@@H](C)C(=O)NCCCN2CCCCC2)cc1 [reference compound] | 55 ± 6 | 0.15 |  | 1.7 | 30 | 44 ± 5 |  | 39 ± 10
5 | CC(C)Cc1ccc([C@@H](C)C(N)=O)cc1 [reference compound] |  | 0.016 |  | 0.4 | 35 | 57 ± 12 | Inactive^# | 10 ± 7
6 | CC(C)Cc1ccc([C@@H](C)C(=O)NS(C)(=O)=O)cc1 [reference compound] |  | 0.0002 |  | 0.4 | 80 | 50 ± 12 | Inactive^# | 10 ± 18
7 | C[C@@H](C(=O)NCCCN1CCCC1)c1ccc(OS(=O)(=O)C(F)(F)F)cc1.Cl | 67 ± 10 | 0.359 | Inactive^# | 2.4 | 90 | 51 ± 13 |  | 
